{
  "source": "patent US20060228388A1",
  "about": "“Method for controlling an insect species using a synthetic trail pheromone mimic” (priority 2005, published 2006)",
  "key": {"[1]": {"tested_on": "colonies of 3rd-5th instar ETCs", "assay": "Field test: artificial trails intersecting authentic trunk trails of colonies", "type": "in vivo, Malacosoma americanum", "procedure": "(§1) The threshold sensitivity of tent caterpillars to 5β-cholestan-3-one laid out in a narrow line on a paper card was determined to be approximately 10^−11 g/mm. Field tests were conducted by using the compound to form artificial trails that intersected well established, authentic trunk trails of colonies of 3rd-5th instar ETCs. In 19 of 23 replicates of these tests, each involving a different colony, colonies abandoned their authentic trail systems and followed the pathways marked with 5β-cholestan-3-one. […] Other studies indicate that the authentic trail pheromone of the tent caterpillar (Malacosoma spp.) may differ subtly from 5β-cholestan-3-one. Thus, 5β-cholestan-3-one is best considered an analog, or pheromone mimic of the authentic tent caterpillar pheromone."}, "tent caterpillars": {"tested_on": "tent caterpillars", "assay": "Threshold sensitivity to a narrow line of compound on a paper card", "type": "in vivo, Malacosoma spp.", "conditions": "compound laid out in a narrow line on a paper card", "procedure": "as §1"}, "[2]": {"tested_on": "forest tent caterpillar colonies", "assay": "Field colony disruption by blanket spraying trees with pheromone-mimic", "type": "in vivo, Malacosoma disstria", "conditions": "third experiment; ash trees; 1 ppm spray; within one week", "procedure": "(§2) Three experiments were conducted, all employing the following protocol. Trees in the experimental plot were divided into two groups. Trees in one group were sprayed with a 1 part per million (ppm) pheromone-mimic formulation and trees in another group were sprayed with a control solution identical to the pheromone mimic formulation except that it lacked the pheromone-mimic. Egg masses were attached to each tree and the fate of the colonies determined by observation.\n(§3) In the second experiment, ten control colonies of the eastern tent caterpillar on apple trees survived and thrived while all of ten colonies on treated trees were destroyed within one week. […] While the exact fate of caterpillars on the treated trees is unknown, they most likely succumbed to a combination of weather related factors, starvation, predation, and falls from the trees."}, "[3]": {"tested_on": "eastern tent caterpillar colonies", "assay": "Field colony disruption by blanket spraying trees with pheromone-mimic", "type": "in vivo, Malacosoma americanum", "procedure": "as §2, §3"}},
  "data": [
    {"molecule": "CC(C)CCC[C@@H](C)[C@H]1CC[C@H]2[C@@H]3CC[C@@H]4CC(=O)CC[C@]4(C)[C@H]3CC[C@]12C", "note": "[5β-cholestan-3-one]", "values": [
      {"measurement": "replicates in which colonies abandoned their authentic trail systems and followed the marked pathways", "setting": "[1]; field, each replicate a different colony of 3rd-5th instar ETCs", "result": "19 of 23"},
      {"measurement": "competitiveness with authentic recruitment trails of the caterpillar", "setting": "[1]; in vivo", "result": "fully competitive"},
      {"measurement": "threshold sensitivity of tent caterpillars", "setting": "tent caterpillars", "result": "approximately 10^−11 g/mm"},
      {"measurement": "colonies on treated trees perished", "setting": "[2]", "result": "all of fifteen"},
      {"measurement": "fate of the remaining treated colonies", "setting": "[3]; first experiment, cherry trees, 1 ppm spray, three remaining colonies", "result": "eventually died out"},
      {"measurement": "treated colonies completely destroyed", "setting": "[3]; first experiment, cherry trees, 1 ppm spray, within several days", "result": "seven of ten"},
      {"measurement": "colonies on treated trees destroyed", "setting": "[3]; second experiment, apple trees, 1 ppm spray, within one week", "result": "all of ten"},
      {"measurement": "disrupting the communicative system of the ETC", "setting": "[3]; solution containing 1 ppm", "result": "effective"}
    ]}
  ]
}
